# Results published in patent publication US20080015386A1, “Crystal of L-Ornithine-Citric Acid Salt” (KYOWA HAKKO KOGYO CO., LTD., priority 2004, published 2008).
# Details: 25° C., relative humidity 75%, weight change measured until day 7; numerical values only in FIG. 1
# Method: A saturated aqueous solution of sodium chloride (approximately 200 mL) was allowed to stand in a plastic desiccator at 25° C. for 24 hours (relative humidity was adjusted to 75%). […] The weighing vessel was allowed to stand in the desiccator with the humidity adjusted, and the weight change of the weighing vessel was measured over the course of time.
# The hygroscopicity (hygroscopic degree) was calculated using the following formula (1) on the basis of the weight change at each measuring time. The measurement of the weight change of the weighing vessel was continued until day 7.
# Hygroscopic rate (%)=W3−W2/W2−W1×100 (1)
# W1=Weight (g) of a weighing vessel
# W2=Weight (g) of a weighing vessel filled with crystals before the test
# W3=Weight (g) of a weighing vessel filled with crystals after the test
structure (smiles),measurement,value
"NCCC[C@H](N)C(=O)O.NCCC[C@H](N)C(=O)O.O=C(O)CC(O)(CC(=O)O)C(=O)O [Example 1, L-ornithine-½ citric acid salt]",Hygroscopicity (hygroscopic rate),did not show notable hygroscopicity
